Measurements reported in patent US10160762B2, “6-alkyl dihydropyrazolopyrimidinone compounds as PDE2 inhibitors” (Merck Sharp & Dohme Corp., priority 2015, dated 2018).
Where two headings read alike, the source gives them in different places.

Target: T1, Rhesus PDE2A3 (Macaca mulatta, UniProt B3VTJ2)
T1 construct: made in house; host or cells: AD293 cells, transient transfection; supernatant of sonicated lysate
T1 sequence (B3VTJ2 1-941): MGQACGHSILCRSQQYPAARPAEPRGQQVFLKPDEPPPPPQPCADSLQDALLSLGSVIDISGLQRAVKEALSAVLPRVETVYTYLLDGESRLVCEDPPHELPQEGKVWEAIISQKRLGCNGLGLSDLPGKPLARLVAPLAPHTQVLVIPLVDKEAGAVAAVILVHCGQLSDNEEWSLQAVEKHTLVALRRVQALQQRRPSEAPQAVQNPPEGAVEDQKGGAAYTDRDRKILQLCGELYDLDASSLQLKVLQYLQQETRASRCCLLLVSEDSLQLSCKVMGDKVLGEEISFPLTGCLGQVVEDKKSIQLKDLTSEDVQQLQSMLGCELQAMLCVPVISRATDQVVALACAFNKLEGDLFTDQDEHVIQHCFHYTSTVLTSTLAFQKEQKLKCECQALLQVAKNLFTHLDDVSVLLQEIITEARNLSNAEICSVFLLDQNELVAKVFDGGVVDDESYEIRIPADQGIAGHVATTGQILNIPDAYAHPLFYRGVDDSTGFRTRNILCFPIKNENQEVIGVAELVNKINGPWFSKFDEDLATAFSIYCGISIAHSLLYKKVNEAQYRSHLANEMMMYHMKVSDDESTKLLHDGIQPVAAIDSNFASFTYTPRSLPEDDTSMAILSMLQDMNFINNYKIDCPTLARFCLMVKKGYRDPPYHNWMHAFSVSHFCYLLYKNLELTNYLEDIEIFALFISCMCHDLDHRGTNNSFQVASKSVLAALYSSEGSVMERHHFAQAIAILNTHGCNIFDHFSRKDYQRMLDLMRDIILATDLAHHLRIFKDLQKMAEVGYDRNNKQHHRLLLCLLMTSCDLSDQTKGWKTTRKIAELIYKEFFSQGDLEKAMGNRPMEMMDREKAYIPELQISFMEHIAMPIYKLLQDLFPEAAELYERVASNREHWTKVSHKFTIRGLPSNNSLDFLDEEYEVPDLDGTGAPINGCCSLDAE
Assay: PDE2 fluorescence polarization (IMAP FP) inhibition assay, rhesus PDE2A3
Assay type: biochemical, rhesus macaque
Procedure, shortened: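 Enzyme source was the lysate supernatant of AD293 cells transiently expressing rhesus PDE2A3, diluted to give 20% conversion of 50 nM FAM-cAMP, with 1 µM cGMP as activator. Buffer was 10 mM Tris pH 7.2, 10 mM MgCl2, 1 mM DTT.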

[1] = Lab B, read-out: Rhesus PDE2 Ki (nM) Lab B
[2] = Lab A, read-out: Rhesus PDE2 Ki (nM) Lab A

| Ki [1] [nM] | Ki [2] [nM] | SMILES |
| --- | --- | --- |
| 0.96 |  | Cc1nc2c(c(CO)nn2[C@@H](C)c2ccc(C(C)(C)C)cc2)c(=O)[nH]1 [Example 157, (S)-1-(1-(4-tert-Butylphenyl)ethyl)-3-(hydroxymethyl)-6-methyl-1H-pyrazolo[3,4-d]pyrimidin-4(5H)-one] |
|  | 147 | Cc1nn(C(C)c2ccc(C(F)(F)F)cc2)c2nc(C3CCC3)[nH]c(=O)c12 (stereo not drawn) [Example 39, 6-Cyclobutyl-3-methyl-1-{1-[4-(trifluoromethyl)phenyl]ethyl}-1,5-dihydro-4H-pyrazolo[3,4-d]pyrimidin-4-one] |
| 33 | 22 | Cc1nc2c(c(C(C)O)nn2C(C)c2ccc(C(F)(F)F)cc2)c(=O)[nH]1 (stereo not drawn) [Example 328, 3-(1-Hydroxyethyl)-6-methyl-1-{1-[4-(trifluoromethyl)phenyl]ethyl}-1,5-dihydro-4H-pyrazolo[3,4-d]pyrimidin-4-one] |
| 12 | ~12 | Cc1ccc(C(C)n2nc(CF)c3c(=O)[nH]c(C)nc32)cc1 (stereo not drawn) [Example 203, 3-(Fluoromethyl)-6-methyl-1-(1-p-tolylethyl)-1H-pyrazolo[3,4-d]pyrimidin-4(5H)-one] |
|  | 28 | Cc1nn(C(C)c2ccc(C(F)(F)F)cc2)c2nc(-c3ccccn3)[nH]c(=O)c12 (stereo not drawn) [Example 52, 3-Methyl-6-pyridin-2-yl-1-{1-[4-(trifluoromethyl)phenyl]ethyl}-1,5-dihydro-4H-pyrazolo[3,4-d]pyrimidin-4-one] |
|  | 113 | CCC(CCCc1ccccc1)n1nc(C)c2c(=O)[nH]c(C)nc21 (stereo not drawn) [Example 338, 1-(1-ethyl-4-phenylbutyl)-3,6-dimethyl-1,5-dihydro-4H-pyrazolo[3,4-d]pyrimidin-4-one] |
| 456 | 216 | Cc1nc2c(c(CO)nn2C(C)c2ccc(C(F)(F)F)cc2)c(=O)[nH]1 (single isomer, unassigned) [Example 26, (R)- or (S)-3-(Hydroxymethyl)-6-methyl-1-{1-[4-(trifluoromethyl)phenyl]ethyl}-1,5-dihydro-4H-pyrazolo[3,4-d]pyrimidin-4-one] |
|  | 257 | Cc1nn(C(C)c2ccc(C(F)(F)F)cc2)c2nc(C(C)C)[nH]c(=O)c12 (stereo not drawn) [Example 43, 3-Methyl-6-(1-methylethyl)-1-{1-[4-(trifluoromethyl)phenyl]ethyl}-1,5-dihydro-4H-pyrazolo[3,4-d]pyrimidin-4-one] |
| 514 | 278 | Cc1nc2c(c(CO)nn2C(C)c2ccc(C(F)(F)F)c(F)c2)c(=O)[nH]1 (single isomer, unassigned) [Example 12, (R)- or (S)-1-(1-(3-Fluoro-4-(trifluoromethyl)phenyl)ethyl)-3-(hydroxymethyl)-6-methyl-1H-pyrazolo[3,4-d]pyrimidin-4(5H)-one] |
|  | 23 | Cc1nc2c(c(C)nn2C(C)c2ccc(C(F)(F)F)cc2)c(=O)[nH]1 (single isomer, unassigned) [Example 37] |
| 0.9 |  | Cc1nc2c(c(CO)nn2C(c2ccc(OC(F)(F)F)c(F)c2)C(C)C)c(=O)[nH]1 (single isomer, unassigned) [Example 127, (S)- or (R)-1-(1-(3-Fluoro-4-(trifluoromethoxy)phenyl)-2-methylpropyl)-3-(hydroxymethyl)-6-methyl-1H-pyrazolo[3,4-d]pyrimidin-4(5H)-one] |
| 1.2 |  | Cc1nc2c(c(C(F)F)nn2C(C)c2ccc(OC(F)F)cc2)c(=O)[nH]1 (single isomer, unassigned) [Example 182, (S)- or (R)-1-(1-(4-(Difluoromethoxy)phenyl)ethyl)-3-(difluoromethyl)-6-methyl-1H-pyrazolo[3,4-d]pyrimidin-4(5H)-one] |
| 2.1 |  | Cc1nc2c(c(CO)nn2C(c2ccc(OC(F)(F)F)cc2)C2CC2)c(=O)[nH]1 (single isomer, unassigned) [Example 95, (S)- or (R)-1-(Cyclopropyl(4-(trifluoromethoxy)phenyl)methyl)-3-(hydroxymethyl)-6-methyl-1H-pyrazolo[3,4-d]pyrimidin-4(5H)-one] |
| 2.2 | 0.75 | Cc1nc2c(c(CO)nn2C(c2ccc(C(F)(F)F)cc2)C2CC2)c(=O)[nH]1 (stereo not drawn) [Example 28, 1-(Cyclopropyl(4-(trifluoromethyl)phenyl)methyl)-3-(hydroxymethyl)-6-methyl-1H-pyrazolo[3,4-d]pyrimidin-4(5H)-one] |
| 1 | 0.62 | Cc1nc2c(c(CO)nn2C(c2ccc(C(F)(F)F)cc2)C(C)C)c(=O)[nH]1 (stereo not drawn) [Example 5, 3-(Hydroxymethyl)-6-methyl-1-(2-methyl-1-(4-(trifluoromethyl)phenyl)propyl)-1H-pyrazolo[3,4-d]pyrimidin-4(5H)-one] |
|  | 26 | COc1ccc(Cc2nc3c(c(CF)nn3C(C)c3ccc(C(F)(F)F)cc3)c(=O)[nH]2)cc1OC (single isomer, unassigned) [Example 223, (S)- or (R)-6-(3,4-Dimethoxybenzyl)-3-(fluoromethyl)-1-(1-(4-(trifluoromethyl)phenyl)ethyl)-1,5-dihydro-4H-pyrazolo[3,4-d]pyrimidin-4-one] |
| 2.1 | 2 | Cc1nc2c(c(CO)nn2C(C)c2ccc(C(F)(F)F)cc2)c(=O)[nH]1 (single isomer, unassigned) [Example 27, (S)- or (R)-3-(Hydroxymethyl)-6-methyl-1-{1-[4-(trifluoromethyl)phenyl]ethyl]-1,5-dihydro-4H-pyrazolo[3,4-d]pyrimidin-4-one] |
|  | 443 | Cc1nc2c(c(C)nn2C(C)c2ccc(C(F)(F)F)cc2)c(=O)[nH]1 (single isomer, unassigned) [Example 36] |
| 28 |  | COc1ccc(Cc2nc3c(c(C(F)F)nn3C(C)c3ccc(C(F)(F)F)cc3)c(=O)[nH]2)cc1OC (single isomer, unassigned) [Example 196] |
|  | 134 | Cc1nc2c(c(C(C)(C)O)nn2C(C)c2ccc(C(F)(F)F)cc2)c(=O)[nH]1 (stereo not drawn) [Example 326, 3-(1-Hydroxy-1-methylethyl)-6-methyl-1-{1-[4-(trifluoromethyl)phenyl]ethyl}-1,5-dihydro-4H-pyrazolo[3,4-d]pyrimidin-4-one] |
|  | 340 | Cc1nn(C(C)c2ccc(C(F)(F)F)cc2)c2nc(C3CCCC3)[nH]c(=O)c12 (stereo not drawn) [Example 40, 6-Cyclopentyl-3-methyl-1-{1-[4-(trifluoromethyl)phenyl]ethyl}-1,5-dihydro-4H-pyrazolo[3,4-d]pyrimidin-4-one] |
| ~0.28 | 0.17 | COc1ccc(Cc2nc3c(c(CF)nn3C(C)c3ccc(C(F)(F)F)cc3)c(=O)[nH]2)cc1OC (single isomer, unassigned) [Example 222, (R)- or (S)-6-(3,4-Dimethoxybenzyl)-3-(fluoromethyl)-1-(1-(4-(trifluoromethyl)phenyl)ethyl)-1,5-dihydro-4H-pyrazolo[3,4-d]pyrimidin-4-one] |
| 18 |  | Cc1nc2c(c(CO)nn2C(c2ccc(OC(F)(F)F)cc2)C2CC2)c(=O)[nH]1 (single isomer, unassigned) [Example 94, (R)- or (S)-1-(Cyclopropyl(4-(trifluoromethoxy)phenyl)methyl)-3-(hydroxymethyl)-6-methyl-1H-pyrazolo[3,4-d]pyrimidin-4(5H)-one] |
| 128 | 65 | Cc1nn(C(C)c2ccc(C(F)(F)F)cc2)c2nc(Cc3ccccc3O)[nH]c(=O)c12 (stereo not drawn) [Example 31, 6-(2-Hydroxybenzyl)-3-methyl-1-(1-(4-(trifluoromethyl)phenyl)ethyl)-1H-pyrazolo[3,4-d]pyrimidin-4(5H)-one] |
